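Five concentrations, 48 hours, 96-well plates. At the TGI there is no net growth.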
Legend:
Assay in all cases: NCI anticancer screen, dose series, 48 h
786-0 renal = test system: 786-0 renal
BT-549 breast = test system: BT-549 breast
COLO 205 colon = test system: COLO 205 colon
EKVX NSCLC = test system: EKVX NSCLC
HCC-2998 colon = test system: HCC-2998 colon
HCT-15 colon = test system: HCT-15 colon
KM12 colon = test system: KM12 colon
LOX IMVI melanoma = test system: LOX IMVI melanoma
M14 melanoma = test system: M14 melanoma
MDA-MB-231 breast = test system: MDA-MB-231 breast
NCI-H226 lung = test system: NCI-H226 lung
NCI-H23 lung = test system: NCI-H23 lung
OVCAR-4 ovarian = test system: OVCAR-4 ovarian
OVCAR-5 ovarian = test system: OVCAR-5 ovarian
RPMI-8226 leukemia = test system: RPMI-8226 leukemia
SF-268 CNS = test system: SF-268 CNS
SF-539 CNS = test system: SF-539 CNS
SN12C renal = test system: SN12C renal
T-47D breast = test system: T-47D breast

| SMILES | TGI (786-0 renal) [µM] | TGI (BT-549 breast) [µM] | TGI (COLO 205 colon) [µM] | TGI (EKVX NSCLC) [µM] | TGI (HCC-2998 colon) [µM] | TGI (HCT-15 colon) [µM] | TGI (KM12 colon) [µM] | TGI (LOX IMVI melanoma) [µM] | TGI (M14 melanoma) [µM] | TGI (MDA-MB-231 breast) [µM] | TGI (NCI-H226 lung) [µM] | TGI (NCI-H23 lung) [µM] | TGI (OVCAR-4 ovarian) [µM] | TGI (OVCAR-5 ovarian) [µM] | TGI (RPMI-8226 leukemia) [µM] | TGI (SF-268 CNS) [µM] | TGI (SF-539 CNS) [µM] | TGI (SN12C renal) [µM] | TGI (T-47D breast) [µM] |
| --- | --- | --- | --- | --- | --- | --- | --- | --- | --- | --- | --- | --- | --- | --- | --- | --- | --- | --- | --- |
| CC(C)(C)OC(=O)CCCCCNC(=O)CCCCCNC(=O)CCC(CN(CC(=O)OCc1ccccc1)CC(=O)OCc1ccccc1)N(CC(=O)OCc1ccccc1)CC(=O)OCc1ccccc1 (centres undefined) | > 100 | > 100 | > 100 | > 100 | > 100 | > 100 | > 100 | > 100 | > 100 | > 100 | > 100 | > 100 | > 100 | > 100 | > 100 | > 100 | > 100 | > 100 | > 100 |
| NC(=O)[N+](=CC(=S)Nc1ccccc1Cl)C(N)=O | > 100 | > 100 | > 100 | > 100 | > 100 | > 100 | > 100 | > 100 | > 100 | > 100 | > 100 | > 100 | > 100 | > 100 | > 100 | > 100 | > 100 | > 100 | > 100 |
| O=C(Nc1ccccc1)OCCN=C1c2ccccc2CCc2ccccc21 | > 100 | 42.1 | 33.1 | > 100 | 45.9 | 48.2 | 33.1 | 49.4 | 45.1 | 37.1 | 55 | > 100 | > 100 | 63.5 | 36.1 | 75.4 | 34.8 | 40.2 | 45 |
| CC(Oc1ccc(Cl)cc1Cl)C(=O)NN1C(=O)CC(=O)N(c2ccccc2)C1=S (centres undefined) | > 100 | > 100 | > 100 | > 100 | > 100 | > 100 | > 100 | > 100 | > 100 | > 100 | > 100 | > 100 | > 100 | > 100 | > 100 | > 100 | > 100 | > 100 | > 100 |
| COc1cc2cc(C(=O)N3CC(CCl)c4ccc([N+](C)(C)Cc5ccccc5[N+](=O)[O-])cc43)[nH]c2c(OC)c1OC (centres undefined) | > 36.3 | 6.29 | 14.9 | 21.3 | 9 | > 100 | 10.2 | 17.1 | 19 | > 31.9 | 19.5 | 4.9 | 12.9 | > 31.3 | 5.3 | 9.1 | 5.38 | 26.4 | 12.5 |
| C=CCN1CCC(c2cc(C(=O)OCC)[nH]c2-c2cc(C)no2)C1=O (centres undefined) | > 100 | > 100 | > 100 | > 100 | > 100 | > 100 | > 100 | > 100 | > 100 | > 100 | > 100 | > 100 | > 100 | > 100 | > 100 | > 100 | > 100 | > 100 | > 100 |
